Data from patent publication US20250313546A1, “NUCLEIC ACID BINDERS” (UNIVERSITY OF STRATHCLYDE, priority 2022, published 2025).
Converted amounts (≈) assume the structure as drawn. Where two headings read alike, the source gives them in different places.

Tests used:
Lomentospora prolificans = test: Expanded set of filamentous fungi, MIC broth microdilution (CLSI); assay type: cell-based; conditions: isolate S2, MIC at 50% inhibition
Fusarium solani = test: as above; assay type: cell-based; conditions: MIC at 50% inhibition; for MIC50: Fusarium solani, isolate F4; for MIC50 Fusarium solani: isolate DI19-284
[1] = test system: Fusarium oxysporum (F7098); conditions: read-out: MIC99 Fusarium oxysporum
Description: The Minimum Inhibitory Concentration (MIC, at 99% inhibition) of the compounds was determined using the broth microdilution method as recommended by EUCAST (EUCAST Definitive Document E.DEF 9.3.2, Method for the determination of broth dilution minimum inhibitory concentrations of antifungal agents for conidia forming moulds and EUCAST Definitive Document E.DEF 7.3.2 Method for the determination of broth dilution minimum inhibitory concentrations of antifungal agents for yeasts).

Blastomyces dermatitidis = test: Expanded set of filamentous fungi, MIC broth microdilution (CLSI); assay type: cell-based
Candida parapsilosis = test: Expanded set of yeasts, MIC broth microdilution (CLSI); assay type: cell-based; conditions: MIC at 50% inhibition; for MIC50: Lodderomyces parapsilosis
C. guilliiermondii = test: as above; assay type: cell-based; conditions: MIC at 50% inhibition; for MIC50: isolate Cgui1
Rhizopus arrhizus = test: Expanded set of filamentous fungi, MIC broth microdilution (CLSI); assay type: cell-based
Paecilomyces variotii = test: as above; assay type: cell-based; conditions: isolate MYA-3630, MIC at 50% inhibition
[2] = In vivo pharmacokinetics mouse model (distribution and tolerability); set-up: species or system male CD-1 mice
Description: The procedure used for in vivo pharmacokinetics experiments is described below.
1 mL of 2 mg/mL stock solution was prepared by adding 500 μL of DMSO to 2 mg of compound and vortexed well until the compound had fully dissolved. 500 μL of Saline for Injection (SFI, warmed to 37° C.) was added dropwise, under vortexing.
Working Solutions Immediately prior to dosing, the 2 mg/mL stock solution was diluted 1:5 to produce 0.4 mg/mL dosing solution. 2 mL of 0.4 mg/mL solution was prepared by adding 400 μL of […] stock solution to 1600 μL diluent (10% DMSO, 90% SFI).
The dosing solution was administered to 7 male CD-1 mice, at 5 mL/kg via intravenous (IV) injection (e.g. 30 g mouse with 150 μL). 3 mice were grouped for the blood sampling study and 4 mice were grouped for the tissue sampling study.
At each time point (0.5, 2, 4, 8 hours), 20 μL blood samples were collected from mice by tail prick into 20 μL EDTA blood collection capillary tubes on wet ice. 20 μL blood samples were added directly to the appropriate well of a 96 deep well plate and mixed with 20 μL of distilled water and the samples stored at −80° C. prior to bioanalysis.
At each time point (0.25 and 1 hour), the lung, both kidneys and the liver (left lateral lobe) were removed from culled mice (two per time point) and individually placed in pre-weighed bead beater tubes, which were then weighed to determine tissue weight. 4× weight/volume sterile water was added to the tissue. Tissues were homogenized in a Precellys bead beater then snap frozen at […] until bioanalysis.
Initial stock of Ia10 was made to 1 mg/mL in DMSO. Calibration and quality controls were made by spiking 1 mg/mL DMSO stock into desired matrix and serial dilution in matrix to desired concentration. Calibration range=1 ng/mL-5000 ng/mL. All samples were crashed out in 5× volume of Acetonitrile. Samples were centrifuged and supernatant diluted 1:3 in water to be analysed on LCMS.
Compound Ia10 has been evaluated in an in vivo pharmacokinetics mouse model in order to investigate compound distribution and tolerability.

[3] = test system: SARS-CoV-2 (hCoV-19/Australia/VIC01/2020); test: SARS-CoV-2 microplaque inhibition assay in Vero-E6 cells; assay type: cell-based
[4] = isolate BD1, MIC at 50% inhibition
[5] = isolate BD2, MIC at 50% inhibition
[6] = isolate BD3, MIC at 50% inhibition
[7] = ATCC22019, isolate ATCC 22019, read-out: MIC50 Candida parapsilosis
[8] = isolate CP1, read-out: MIC50 C. parapsilosis
[9] = isolate 99-880, MIC at 50% inhibition
[10] = isolate 99-892, MIC at 50% inhibition
[11] = isolate RA3, MIC at 50% inhibition

| SMILES | MIC50 (Lomentospora prolificans) | MIC50 (Fusarium solani) | MIC50 Fusarium solani (Fusarium solani) | MIC99 [1] | MIC50 (Blastomyces dermatitidis; [4]) | MIC50 (Blastomyces dermatitidis; [5]) | MIC50 (Blastomyces dermatitidis; [6]) | MIC50 (Candida parapsilosis; [7]) | MIC50 (Candida parapsilosis; [8]) | MIC50 C. parapsilosis (Candida parapsilosis; isolate CP2) | MIC50 C. parapsilosis (Candida parapsilosis; isolate CP3) | MIC50 (C. guilliiermondii) | MIC50 C. guilliiermondii (C. guilliiermondii; isolate Cgui2) | MIC50 C. guilliiermondii (C. guilliiermondii; isolate Cgui3) | MIC50 (Rhizopus arrhizus; [9]) | MIC50 (Rhizopus arrhizus; [10]) | MIC50 (Rhizopus arrhizus; [11]) | MIC50 (Paecilomyces variotii) | also measured |
| --- | --- | --- | --- | --- | --- | --- | --- | --- | --- | --- | --- | --- | --- | --- | --- | --- | --- | --- | --- |
| C/N=C(\CCNC(=O)c1cc(NC(=O)c2cc(NC(=O)c3ccc(/C=C/c4ccc(N(C)C)cc4)nc3)cn2C)cn1C)NC [Ia8, 6-((E)-4-(dimethylamino)styryl)-N-(1-methyl-5-((1-methyl-5-(((E)-3-(methylamino)-3-(methylimino)propyl)carbamoyl)-1H-pyrrol-3-yl)carbamoyl)-1H-pyrrol-3-yl)nicotinamide] | 1 to 8 µg/mL (≈ 1.64 to 13.1 µM) | ≤ 1 µg/mL | *** (*** means MIC50 <= 1 μg/mL) | < 5 µg/mL | 1 to 8 µg/mL (≈ 1.64 to 13.1 µM) | 1 to 8 µg/mL (≈ 1.64 to 13.1 µM) | 1 to 8 µg/mL (≈ 1.64 to 13.1 µM) | 1 to 8 µg/mL (≈ 1.64 to 13.1 µM) | 1 to 8 µg/mL (≈ 1.64 to 13.1 µM) | ** (** means 1 μg/mL < MIC50 <= 8 μg/mL) | ** (** means 1 μg/mL < MIC50 <= 8 μg/mL) | 1 to 8 µg/mL (≈ 1.64 to 13.1 µM) | ** (** means 1 μg/mL < MIC50 <= 8 μg/mL) | ** (** means 1 μg/mL < MIC50 <= 8 μg/mL) | 1 to 8 µg/mL (≈ 1.64 to 13.1 µM) | 1 to 8 µg/mL (≈ 1.64 to 13.1 µM) | 1 to 8 µg/mL (≈ 1.64 to 13.1 µM) | 1 to 8 µg/mL (≈ 1.64 to 13.1 µM) | – |
| C/N=C(/CCNC(=O)c1cc(NC(=O)c2cc(NC(=O)c3ccc(/C=C/c4cnc5ccccc5c4)cc3)cn2C)cn1C)NC [Ia10, 1-methyl-4-(1-methyl-4-(4-((E)-2-(quinolin-3-yl)vinyl)benzamido)-1H-pyrrole-2-carboxamido)-N—((Z)-3-(methylamino)-3-(methylimino)propyl)-1H-pyrrole-2-carboxamide] | ≤ 1 µg/mL | ≤ 1 µg/mL | *** (*** means MIC50 <= 1 μg/mL) | 5 to 25 µg/mL (≈ 8.11 to 40.5 µM) | 1 to 8 µg/mL (≈ 1.62 to 13 µM) | 1 to 8 µg/mL (≈ 1.62 to 13 µM) | 8 to 32 µg/mL (≈ 13 to 51.9 µM) | 1 to 8 µg/mL (≈ 1.62 to 13 µM) | 1 to 8 µg/mL (≈ 1.62 to 13 µM) | ** (** means 1 μg/mL < MIC50 <= 8 μg/mL) | ** (** means 1 μg/mL < MIC50 <= 8 μg/mL) | 1 to 8 µg/mL (≈ 1.62 to 13 µM) | ** (** means 1 μg/mL < MIC50 <= 8 μg/mL) | ** (** means 1 μg/mL < MIC50 <= 8 μg/mL) | 1 to 8 µg/mL (≈ 1.62 to 13 µM) | 1 to 8 µg/mL (≈ 1.62 to 13 µM) | 1 to 8 µg/mL (≈ 1.62 to 13 µM) | 1 to 8 µg/mL (≈ 1.62 to 13 µM) | Blood conc @ 1 Hr ([2]; 2 mg/kg IV dose in mice, blood, 1 Hr): 204 nM; Lung conc @ 1 Hr ([2]; 2 mg/kg IV dose in mice, lung, 1 Hr): 28.968 µM; Accumulation in lung tissue ([2]; 2 mg/kg IV in mice): remarkable accumulation in lung tissue; Tolerability ([2]; 2 mg/kg IV in mice (higher doses were not investigated)): well tolerated; Kp at 1 h ([2]; male, CD-1, mouse, lung vs whole blood, 2 mg/kg IV dose in mice, lung vs blood at 1 Hr, read-out: Lung accumulation factor): ~142 |
| [H]/N=C(\CCNC(=O)c1cc(NC(=O)c2cc(NC(=O)c3ccc(C=Cc4ccc(N(C)C)cc4)nc3)cn2C)cn1C)NC [Ia9, (E)-6-(4-(dimethylamino)styryl)-N-(5-((5-((3-imino-3-(methylamino)propyl)carbamoyl)-1-methyl-1H-pyrrol-3-yl)carbamoyl)-1-methyl-1H-pyrrol-3-yl)nicotinamide] | ≤ 1 µg/mL | ≤ 1 µg/mL | *** (*** means MIC50 <= 1 μg/mL) | < 5 µg/mL | 1 to 8 µg/mL (≈ 1.68 to 13.4 µM) | 1 to 8 µg/mL (≈ 1.68 to 13.4 µM) | 1 to 8 µg/mL (≈ 1.68 to 13.4 µM) | 1 to 8 µg/mL (≈ 1.68 to 13.4 µM) | 1 to 8 µg/mL (≈ 1.68 to 13.4 µM) | ** (** means 1 μg/mL < MIC50 <= 8 μg/mL) | ** (** means 1 μg/mL < MIC50 <= 8 μg/mL) | 1 to 8 µg/mL (≈ 1.68 to 13.4 µM) | ** (** means 1 μg/mL < MIC50 <= 8 μg/mL) | ** (** means 1 μg/mL < MIC50 <= 8 μg/mL) | 1 to 8 µg/mL (≈ 1.68 to 13.4 µM) | 1 to 8 µg/mL (≈ 1.68 to 13.4 µM) | 1 to 8 µg/mL (≈ 1.68 to 13.4 µM) | 1 to 8 µg/mL (≈ 1.68 to 13.4 µM) | SARS-CoV-2 Selectivity Indices, Group ([3]; SI, IC50 (μM)/IC50 (μM), HEK293 cytotoxicity, Alkyl Amidines and NH Pyrroles): B (Group B: 4.1 < SI <= 10); IC50 ([3]; Severe acute respiratory syndrome coronavirus 2, Vero C1008, plaque inhibition, Vero-E6 cells, read-out: IC50 SARS-CoV-2): 2 to 8 µM |
